Experimental data reported in US10334850B2, “Recombinant microorganism expressing avermectin analogue and use thereof” (Zhejiang Hisun Pharmaceutical Co., Ltd., priority 2014, dated 2019).

Test system: pine wood nematodes
Test: Toxicity assay against pine wood nematodes (immersion method)
Type: in vivo
Conditions: 24 h
Experimental: 3. Activity assay of tenvermectins against pine wood nematodes: The indoor activities of sixteen-membered macrolide compounds such as tenvermectins, avermectins, ivermectin, milbemycins, emamectin benzoate were assayed, wherein pine wood nematodes were used as the test insects. The aim was to compare the difference in activities of such medicaments on pine wood nematodes.
Test medicaments: five kinds of medicaments, i.e. 0.5% avermectins emulsifiable concentrate, 0.5% tenvermectins emulsifiable concentrate, 0.5% ivermectin emulsifiable concentrate, 2% milbemycins emulsifiable concentrate, 2.5% emamectin benzoate microemulsion.
Test Method: The immersion method was adopted. Five mass concentrations 2, 5, 10, 20, 50 mg/L were set for each of the medicaments, and each concentration was repeated for three times. The experimental results were subjected to statistics after 24 h (see Table 5).

Row | Substance | Mortality at different concentrations (mg/L, %) (2 mg/L) | Mortality at different concentrations (mg/L, %) (5 mg/L) | Mortality at different concentrations (mg/L, %) (10 mg/L) | Mortality at different concentrations (mg/L, %) (20 mg/L) | Mortality at different concentrations (mg/L, %) (50 mg/L)
1 | ivermectin | 18.52% | 42.55% | 57.47% | 58.33% | 78.94%
2 | emamectin benzoate | 48.27% | 61.68% | 67.44% | 75% | 86.67%
